One compound from US6395787B1, “Ocular hypotensive lipids” (Allergan Sales, Inc., priority 2000, dated 2002) can be followed below.

The target of assay [1] is recombinant feline FP receptor (Felis catus, UniProt A0ABI7XJ69). The experiment in a line: Radioligand binding competition vs 3H-17-phenyl PGF2α, recombinant feline FP receptor. Also noted: species or system cat. The method, then: Plasma membrane preparations of HEK 293 cells stably transfected with the human or feline FP receptor were obtained as follows. Cells washed with TME buffer were scraped from the bottom of the flasks and homogenized for 30 sec using a Brinkman PT 10/35 polytron. TME buffer was added as necessary to achieve a 40 ml volume in the centrifuge tubes. […] The cell homogenate was centrifuged at 19,000 rpm for 20 min at 4-6° C. using a Beckman Ti-60 rotor. The pellet was then resuspended in TME buffer to provide a final protein concentration of 1 mg/ml, as determined by Biorad assay. […] Incubations were for 60 min at 25° C. and were terminated by the addition of 4 ml of ice-cold 50 mM TRIS-HCl followed by rapid filtration through Whatman GF/B filters and three additional 4 ml washes in a cell harvester (Brandel).
Sequence of recombinant feline FP receptor (A0ABI7XJ69 entry or part of it): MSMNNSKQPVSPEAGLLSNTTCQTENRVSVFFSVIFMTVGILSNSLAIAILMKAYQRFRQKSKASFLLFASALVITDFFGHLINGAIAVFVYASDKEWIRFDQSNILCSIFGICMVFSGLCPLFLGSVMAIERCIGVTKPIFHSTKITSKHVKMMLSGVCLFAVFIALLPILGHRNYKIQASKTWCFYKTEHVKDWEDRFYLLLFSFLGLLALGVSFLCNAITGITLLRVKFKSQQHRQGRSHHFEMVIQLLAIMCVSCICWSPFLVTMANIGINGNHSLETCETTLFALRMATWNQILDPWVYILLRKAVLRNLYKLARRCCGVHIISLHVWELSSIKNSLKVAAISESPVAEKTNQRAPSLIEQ

Assay [2] deals with human platelets (DP-, TP- and IP-receptor types). Briefly: Human platelet aggregation and inhibition of ADP-induced aggregation. The class given is cell-based. The protocol:
Prostanoid activity at the DP-, TP- and IP-receptor types was determined by an ability to cause aggregation (TP-receptor activity) or to inhibit ADP-induced aggregation of human platelets in vitro (DP- and IP-receptor activity). Fresh whole blood was obtained from consenting healthy human volunteers and mixed with acid citrate-dextrose (ACD). The blood was centrifuged at 1000 rpm for 15-20 minutes to obtain platelet rich plasma (PRP). 4.5 μl of prostanoid or vehicle was added to 450 μl of PRP and incubated for 2 minutes at 37° C. in a Payton aggregometer and observed for any aggregatory activity. 2×10^−5 M ADP (final concentration) was then added to induce full aggregation. Inhibition of aggregation was calculated as the percentage difference between aggregation evoked by 2×10^−5 M ADP in the absence and presence of drug. Aggregatory activity was calculated as the percent aggregation induced by the prostanoid relative to the aggregation induced by 2×10^−5 M ADP. Standard aggregatory responses to 2×10^−5 M ADP alone were performed at the beginning and end of each experiment.

The target in another assay is human FP receptor (Homo sapiens, UniProt P43088). The experiment in a line: Total inositol phosphate accumulation, HEK-293 cells with recombinant human FP receptor. To be noted: for % maximal total inositol phosphate accumulation mean χ ± SEM: reference 17-phenyl PGF2α 10^−6 M. Also noted: expressed in transfected cells. The class given is cell-based. The method, then:
HEK-293 cells were grown in DMEM with 10% fetal bovine serum (FBS), 250 μg ml^−1 G418 (Life Technologies) and 200 μg ml^−1 gentamicin or penicillin/streptomycin. […] For transfection, the cells were grown to 50-60% confluency on 10 cm plates. The plasmid pCEP4 incorporating cDNA inserts for the human FP receptor (20 μg) was added to 500 μl of 250 mM CaCl2. HEPES buffered saline×2 (2×HBSS, 280 mM NaCl, 20 mM HEPES acid, 1.5 mM Na2 HPO4, pH 7.05-7.12) was then added dropwise to a […], with continuous vortexing at room temperature. After 30 min, 9 ml DMEM were added to the mixture. The DNA/DMEM/calcium phosphate mixture was then added to the cells, which had been previously rinsed with 10 ml phosphate buffered saline (PBS). The cells were then incubated for 5 h. at 37° C. in humidified 95% air/5% CO2. The calcium phosphate solution was then removed and the cells were treated with 10% glycerol in DMEM for 2 min. The glycerol solution was then replaced by DMEM with 10% fetal bovine serum (FBS). The cells were incubated overnight and the medium was replaced by DMEM/10% FBS containing 250 μg ml^−1 G418 and penicillin/streptomycin. The following day hygromycin B was added to a final concentration of 200 μg ml^−1.
Receptor-mediated phosphoinositide (PI) hydrolysis was determined by measuring the accumulation of total inositol phosphates (IP) in cells preincubated with ^3H-myoinositol. Stable cell lines of HEK 293 cells expressing human or cat FP receptors were plated in 10 cm dishes (10^6 cells per dish in DMEM with 10% FBS). The following day, the cells were incubated with 18 μCi myo-[2 ^3H] inositol (Amersham; […]) in 6 ml of DMEM with 10% FBS for 24 hours at 37° C. The cells were then rinsed twice with phosphate buffered saline (PBS), incubated for 5 min with 1 ml of trypsin-EDTA, and suspended in 10 ml DMEM containing 25 mM HEPES buffer. Cells were pelleted at 1000 rpm and resuspended in DMEM/25 mM HEPES containing 10 mM LiCl for 10 minutes. Aliquots of 200 μl cell suspension were incubated with 50 μl drug for 30 minutes at 37° C. (duplicate determination), and agonist stimulation was terminated with a 750 μl mixture of chloroform:methanol:4N HCl (100:200:2), followed by addition of 250 μl of chloroform and 0.5 N HCl for extraction of inositol phosphates. A 750 μl volume of the aqueous layer was loaded on columns packed with 0.5 ml of Dowex AG 1-X8 anion-exchange resin (formate form, 100-200 mesh; BioRad) to separate radiolabeled components. The elution procedure consisted of three 3 ml washes with 5 mM inositol, then two elutions with 750 μl of 1.3 M ammonium formate with 0.1 M formic acid. The eluate was mixed with 10 ml Aquasol scintillation fluid (Packard Instrument Co.) and total [^3H] inositol phosphates was determined by a liquid scintillation counter.

Assay [3] deals with isolated rat aorta (TP receptor preparation). Briefly: Isolated rat aorta contraction. As to conditions: 10^−6 and 10^−5 M. The method, then:
Smooth muscle tension of isolated tissues was measured isometrically with force displacement transducers (Grass FT-03) and recorded on Grass Polygraphs (Models 7G and 79E). The organ baths contained Krebs solution maintained at 37° C. and gassed with 95% 02/5% CO2 to give a pH of 7.4. The Krebs solution had the following composition (mM): NaCl, 118.0; KCl, 4.7; KH2PO4, 1.2; CaCl2, 1.9; MgSO4, 1.18; NaHCO3, 25.0; glucose, 11.7; indomethacin, 0.001.
Adult Sprague Dawley rats weighing 180-220 grams were anesthetized by CO2 inhalation and then decapitated and exsanguinated. The thoracic aorta was removed and cleaned of any adhering tissue. The lumen was flushed to remove any blood. The aorta was dissected into three small segments of 5-8 mm length. Each segment was mounted under 2 g of tension in a jacketed 10 ml organ bath with the aid of two wire hooks placed through the lumen of the vessel. This arrangement allowed for measurement of contraction forces developed by the circular smooth muscle. The tissues were allowed to equilibrate for 1 hour before compounds were added cumulatively to the organ baths. The response to 10^−7 M U-46619 (a thromboxane mimetic) was determined at the beginning and end of each experiment as a reference. A 30-45 minute recovery period was allowed after complete wash-out of drug. Only one test compound was examined in each tissue.

pEC50, pIC50: −log10 of the molar value.

Sequence of human FP receptor (P43088 whole entry): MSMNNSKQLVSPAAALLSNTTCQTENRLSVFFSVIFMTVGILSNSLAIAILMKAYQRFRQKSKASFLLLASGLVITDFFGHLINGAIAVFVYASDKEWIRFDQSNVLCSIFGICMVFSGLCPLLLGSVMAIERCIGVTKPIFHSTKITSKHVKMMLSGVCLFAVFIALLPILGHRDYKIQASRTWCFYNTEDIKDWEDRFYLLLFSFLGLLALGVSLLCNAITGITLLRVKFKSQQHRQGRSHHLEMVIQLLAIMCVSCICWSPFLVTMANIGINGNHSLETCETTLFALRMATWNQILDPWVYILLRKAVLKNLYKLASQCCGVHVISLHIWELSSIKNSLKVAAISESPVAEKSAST

As for `CCCCC[C@H](O)/C=C/[C@@H]1[C@@H](C/C=C\CCCC(=O)NCCO)[C@@H](O)C[C@H]1O` [PGF2α 1-ethanolamide, (5Z,8α,9α,11α,13E,15S)-9,11,15-trihydroxy-N-(2-hydroxyethyL)prosta-5,13-dien-1-amide], the “affinity for the feline receptor” value in assay [1] (radioligand binding) is given as “only weak affinity”. Moreover, in assay [1] (read-out: inhibitory concentration50 (I.C.50), radioligand binding), the pIC50 was 6.05. Also, the “effect on platelets (aggregation; inhibition of ADP induced aggregation)” value in assay [2] is given as “No effect”. Further, the “% maximal total inositol phosphate accumulation mean χ ± SEM” value on human FP receptor (10^−5 M) is 85.0 ± 1.9%; on human FP receptor (10^−6 M), 48.4 ± 3.3%; on human FP receptor (10^−7 M), 10.0 ± 1.6%; at human FP receptor (10^−8 M) it was 0.3 ± 0.6%. In addition, the pEC50 at human FP receptor (HEK-293 cells, recombinant human FP receptor, read-out: E.C.50, total inositol phosphate accumulation) was 6.00. Further, in assay [3], the “effect on the isolated rat aorta” value was “Residual activity occurred at high doses”.
